Measured values reported in PubChem BioAssay (NCI).
Several values for one entry are separate records, joined by “and”; a condition that tells them apart may be missing. Equal values may be shown once.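 Five compound concentrations were applied to cells in 96-well plates for 48 hours; endpoints were derived by simple linear interpolation of the resulting dose-response curve. GI50 = concentration required for 50% inhibition of growth. TGI denotes the concentration required for complete inhibition of growth.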

Experiments:
Experiment in all cases: growth of human tumour cells (NCI), 48 h
M14 melanoma = test system: M14 melanoma
HL-60(TB) leukemia = test system: HL-60(TB) leukemia
OVCAR-8 ovarian = test system: OVCAR-8 ovarian
SF-295 CNS = test system: SF-295 CNS
DLD-1 colon = test system: DLD-1 colon
M19-MEL melanoma = test system: M19-MEL melanoma
KM20L2 colon = test system: KM20L2 colon
NCI-H522 lung = test system: NCI-H522 lung
SK-MEL-5 melanoma = test system: SK-MEL-5 melanoma
UACC-62 melanoma = test system: UACC-62 melanoma
OVCAR-3 ovarian = test system: OVCAR-3 ovarian
HT29 colon = test system: HT29 colon
SNB-75 CNS = test system: SNB-75 CNS
LOX IMVI melanoma = test system: LOX IMVI melanoma
NCI-H23 lung = test system: NCI-H23 lung
NCI-H460 lung = test system: NCI-H460 lung
SN12C renal = test system: SN12C renal
MALME-3M melanoma = test system: MALME-3M melanoma
CCRF-CEM leukemia = test system: CCRF-CEM leukemia
HCT-116 colon = test system: HCT-116 colon
DMS 114 small cell lung = test system: DMS 114 small cell lung
RPMI-8226 leukemia = test system: RPMI-8226 leukemia
RXF 393 renal = test system: RXF 393 renal
CAKI-1 renal = test system: CAKI-1 renal
SF-539 CNS = test system: SF-539 CNS
SF-268 CNS = test system: SF-268 CNS
HOP-92 NSCLC = test system: HOP-92 NSCLC
KM12 colon = test system: KM12 colon
K-562 leukemia = test system: K-562 leukemia
U251 CNS = test system: U251 CNS
XF 498 CNS = test system: XF 498 CNS
SNB-78 CNS = test system: SNB-78 CNS
COLO 205 colon = test system: COLO 205 colon
SW-620 colon = test system: SW-620 colon
OVCAR-4 ovarian = test system: OVCAR-4 ovarian
SK-MEL-28 melanoma = test system: SK-MEL-28 melanoma
HCT-15 colon = test system: HCT-15 colon
786-0 renal = test system: 786-0 renal
DMS 273 small cell lung = test system: DMS 273 small cell lung
LXFL 529 NSCLC = test system: LXFL 529 NSCLC
UACC-257 melanoma = test system: UACC-257 melanoma
MOLT-4 leukemia = test system: MOLT-4 leukemia
TK-10 renal = test system: TK-10 renal
SR leukemia = test system: SR leukemia
HCC-2998 colon = test system: HCC-2998 colon
IGROV1 ovarian = test system: IGROV1 ovarian
SK-MEL-2 melanoma = test system: SK-MEL-2 melanoma
ACHN renal = test system: ACHN renal
UO-31 renal = test system: UO-31 renal
A498 renal = test system: A498 renal
SNB-19 CNS = test system: SNB-19 CNS
A549 NSCLC = test system: A549 NSCLC
HOP-18 NSCLC = test system: HOP-18 NSCLC
SK-OV-3 ovarian = test system: SK-OV-3 ovarian
NCI-H226 lung = test system: NCI-H226 lung
EKVX NSCLC = test system: EKVX NSCLC
HOP-62 NSCLC = test system: HOP-62 NSCLC
OVCAR-5 ovarian = test system: OVCAR-5 ovarian

NCCSSC/C=C\CSSCCN
TGI (M14 melanoma): > 100 µM and 42.5 µM
TGI (HL-60(TB) leukemia): 29.6 µM and 45.7 µM
TGI (OVCAR-8 ovarian): > 69.5 µM and 34.6 µM
GI50 (SF-295 CNS): > 90.3 µM and 27.6 µM
TGI (SF-295 CNS): > 100 µM and 80.8 µM
GI50 (DLD-1 colon): 33.8 µM and 15.6 µM
TGI (DLD-1 colon): > 100 µM and 34.9 µM
TGI (M19-MEL melanoma): > 100 µM and 95.2 µM
GI50 (KM20L2 colon): 76.3 µM and 21.6 µM
TGI (KM20L2 colon): > 100 µM and 45 µM
TGI (NCI-H522 lung): 31.4 µM and 29.1 µM
GI50 (SK-MEL-5 melanoma): > 85.7 µM and 26.9 µM
TGI (SK-MEL-5 melanoma): > 100 µM and 77.9 µM
GI50 (UACC-62 melanoma): 41.2 µM and 20.2 µM
TGI (UACC-62 melanoma): > 100 µM and 41.6 µM
GI50 (OVCAR-3 ovarian): > 68.6 µM and 25.1 µM
TGI (OVCAR-3 ovarian): > 100 µM and 67.1 µM
TGI (HT29 colon): > 100 µM and 58.9 µM
TGI (SNB-75 CNS): > 100 µM
GI50 (LOX IMVI melanoma): 26.2 µM and 13 µM
TGI (LOX IMVI melanoma): > 59.9 µM and 27.9 µM
TGI (NCI-H23 lung): > 100 µM
GI50 (NCI-H460 lung): 98.4 µM and 22.2 µM
TGI (NCI-H460 lung): > 100 µM and 51.9 µM
GI50 (SN12C renal): 43.5 µM and 19 µM
TGI (SN12C renal): > 100 µM and 38 µM
GI50 (MALME-3M melanoma): > 40.4 µM and 17.8 µM
TGI (MALME-3M melanoma): > 55.8 µM and 78 µM
TGI (CCRF-CEM leukemia): 68.6 µM
TGI (HCT-116 colon): > 100 µM
TGI (DMS 114 small cell lung): > 95.1 µM and 44 µM
TGI (RPMI-8226 leukemia): 99.5 µM and 58.8 µM
TGI (RXF 393 renal): > 100 µM
TGI (CAKI-1 renal): > 100 µM
TGI (SF-539 CNS): 70.5 µM and 36.5 µM
GI50 (SF-268 CNS): > 64.9 µM and 29.5 µM
TGI (SF-268 CNS): > 100 µM
TGI (HOP-92 NSCLC): > 100 µM
GI50 (KM12 colon): 65 µM and 23.4 µM
TGI (KM12 colon): > 100 µM and 62 µM
GI50 (K-562 leukemia): 6.31 µM and 15.7 µM
TGI (K-562 leukemia): 25.4 µM and 40.5 µM
TGI (U251 CNS): > 100 µM and 67.4 µM
GI50 (XF 498 CNS): 79.7 µM and 21.6 µM
TGI (XF 498 CNS): > 100 µM and 69.5 µM
TGI (SNB-78 CNS): > 100 µM
GI50 (COLO 205 colon): 42.7 µM and 18.4 µM
TGI (COLO 205 colon): > 100 µM and 34 µM
TGI (SW-620 colon): > 64.8 µM and 28.3 µM
TGI (OVCAR-4 ovarian): 77.3 µM and 41.2 µM
GI50 (SK-MEL-28 melanoma): 56 µM and 24.7 µM
TGI (SK-MEL-28 melanoma): > 100 µM and 77.8 µM
TGI (HCT-15 colon): > 100 µM
GI50 (786-0 renal): 56.4 µM and 27.1 µM
TGI (786-0 renal): > 100 µM and 82 µM
TGI (DMS 273 small cell lung): > 100 µM and 60.8 µM
TGI (LXFL 529 NSCLC): > 67.2 µM and 44.6 µM
GI50 (UACC-257 melanoma): 76.8 µM and 29 µM
TGI (UACC-257 melanoma): > 100 µM
TGI (MOLT-4 leukemia): 65.2 µM and 53.9 µM

Cc1c(C)n(COCCO)c2ncnc(N)c12
TGI (M14 melanoma): > 100 µM
TGI (HL-60(TB) leukemia): > 100 µM
TGI (OVCAR-8 ovarian): > 100 µM
TGI (SF-295 CNS): > 100 µM
TGI (DLD-1 colon): > 100 µM
TGI (TK-10 renal): > 100 µM
TGI (M19-MEL melanoma): > 100 µM
TGI (SR leukemia): > 100 µM
TGI (KM20L2 colon): > 100 µM
TGI (NCI-H522 lung): > 100 µM
TGI (SK-MEL-5 melanoma): > 100 µM
TGI (OVCAR-3 ovarian): > 100 µM
TGI (HT29 colon): > 100 µM
TGI (SNB-75 CNS): > 100 µM
TGI (HCC-2998 colon): > 100 µM
TGI (NCI-H23 lung): > 100 µM
TGI (NCI-H460 lung): > 100 µM
TGI (SN12C renal): > 100 µM
TGI (IGROV1 ovarian): > 100 µM
TGI (SK-MEL-2 melanoma): > 100 µM
TGI (ACHN renal): > 100 µM
TGI (CCRF-CEM leukemia): > 100 µM
TGI (UO-31 renal): > 100 µM
TGI (RPMI-8226 leukemia): > 100 µM
TGI (RXF 393 renal): > 100 µM
TGI (A498 renal): > 100 µM
TGI (CAKI-1 renal): > 100 µM
TGI (SF-539 CNS): > 100 µM
TGI (SF-268 CNS): > 100 µM
TGI (HOP-92 NSCLC): > 100 µM
TGI (KM12 colon): > 100 µM
TGI (K-562 leukemia): > 100 µM
TGI (U251 CNS): > 100 µM
TGI (XF 498 CNS): > 100 µM
TGI (SNB-19 CNS): > 100 µM
TGI (A549 NSCLC): > 100 µM
TGI (HOP-18 NSCLC): > 100 µM
TGI (SK-OV-3 ovarian): > 100 µM
TGI (NCI-H226 lung): > 100 µM
TGI (EKVX NSCLC): > 100 µM
TGI (COLO 205 colon): > 100 µM
TGI (SW-620 colon): > 100 µM
TGI (OVCAR-4 ovarian): > 100 µM
TGI (SK-MEL-28 melanoma): > 100 µM
TGI (HCT-15 colon): > 100 µM
TGI (786-0 renal): > 100 µM
TGI (DMS 273 small cell lung): > 100 µM
TGI (LXFL 529 NSCLC): > 100 µM
TGI (MOLT-4 leukemia): > 100 µM

COC(=O)[C@@H]1c2[nH]c3ccccc3c2C[C@@H]2c3ccccc3NC(=O)[C@@H]21
TGI (M14 melanoma): > 100 µM
TGI (HL-60(TB) leukemia): > 100 µM
TGI (OVCAR-8 ovarian): > 100 µM
TGI (HOP-62 NSCLC): 54.3 µM
TGI (SF-295 CNS): > 31.6 µM
TGI (DLD-1 colon): > 100 µM
TGI (TK-10 renal): > 100 µM
TGI (M19-MEL melanoma): > 100 µM
TGI (KM20L2 colon): > 100 µM
TGI (NCI-H522 lung): > 100 µM
TGI (SK-MEL-5 melanoma): > 100 µM
TGI (UACC-62 melanoma): > 100 µM
TGI (OVCAR-3 ovarian): > 100 µM
TGI (HT29 colon): > 100 µM
TGI (SNB-75 CNS): 60.6 µM
TGI (HCC-2998 colon): > 100 µM
TGI (LOX IMVI melanoma): > 100 µM
TGI (NCI-H23 lung): > 100 µM
TGI (NCI-H460 lung): > 100 µM
TGI (SN12C renal): > 100 µM
TGI (MALME-3M melanoma): > 100 µM
TGI (IGROV1 ovarian): > 100 µM
TGI (SK-MEL-2 melanoma): > 100 µM
TGI (ACHN renal): > 100 µM
TGI (CCRF-CEM leukemia): > 100 µM
TGI (UO-31 renal): > 100 µM
TGI (HCT-116 colon): > 100 µM
TGI (DMS 114 small cell lung): > 100 µM
TGI (RPMI-8226 leukemia): > 100 µM
TGI (RXF 393 renal): > 100 µM
TGI (A498 renal): > 100 µM
TGI (CAKI-1 renal): > 100 µM
TGI (SF-539 CNS): > 100 µM
TGI (SF-268 CNS): > 31.6 µM
TGI (KM12 colon): > 100 µM
TGI (K-562 leukemia): > 100 µM
TGI (U251 CNS): > 100 µM
TGI (XF 498 CNS): > 100 µM
TGI (SNB-19 CNS): > 100 µM
TGI (A549 NSCLC): > 100 µM
TGI (SNB-78 CNS): > 100 µM
TGI (SK-OV-3 ovarian): > 100 µM
TGI (NCI-H226 lung): > 60.8 µM
TGI (EKVX NSCLC): > 100 µM
TGI (COLO 205 colon): > 100 µM
TGI (SW-620 colon): > 100 µM
TGI (SK-MEL-28 melanoma): > 100 µM
TGI (HCT-15 colon): > 100 µM
TGI (786-0 renal): > 100 µM
TGI (DMS 273 small cell lung): > 100 µM
TGI (LXFL 529 NSCLC): > 100 µM
TGI (UACC-257 melanoma): > 100 µM
TGI (MOLT-4 leukemia): > 100 µM
TGI (OVCAR-5 ovarian): > 100 µM
